The values that follow come from patent publication US6780971B2, “Compositions for inhibiting the aggregation pathway of α-synuclein” (Panacea Pharmaceuticals, Inc., priority 2000, dated 2004).

Experiment [1] concerns BE-M17 cells expressing the human A53T α-synuclein cDNA. Briefly: Aggregate formation in BE-M17 cells expressing A53T α-synuclein. The experiment is classed as cell-based.
Experiment [2] deals with primary cultures of cortical neurons. Briefly: Neuronal process length and inclusions in primary cultures of cortical neurons. To be noted: 0.3 mM FeCl2 plus 50 μM dopamine plus 1-2 mM magnesium, 3 days. The class given is cell-based, rat. Here is the method:
How magnesium affected neurons from the central nervous system was also examined. Primary cultures of cortical neurons were treated with 0.3 mM FeCl2 plus 50 μM dopamine plus 0-2 mM MgCl2 for 3 days (a relatively low dose of iron was used to enable quantitation of neuronal processes). To quantify the amount of neuroprotection provided by magnesium, the percent of processes longer than 100 μm as a characteristic of cell viability was determined. […] Inclusions also formed in these neurons.

Experiment [3] deals with T1, wildtype recombinant α-synuclein (Homo sapiens, UniProt P37840).
T1 construct: His-6 (cleaved yes); made in house; host or cells: bacteria (IPTG-induced; Pro-Ex His 6 vector)
Kind of experiment: Aggregation of recombinant wildtype α-synuclein (immunoblot, video densitometry, thioflavine-S). The class given is biochemical. As for the experimental part: Knowing that magnesium and iron induce opposing changes in α-synuclein tyrosine fluorescence, it is believed that binding of magnesium might convert α-synuclein to a conformation that resists aggregation perhaps by preventing β-pleated sheet formation. To test this, wildtype recombinant α-synuclein was incubated with 0-3 mM FeCl2 and 0 or 100 μM MgCl2 for 24 hrs at 37° C., then immunoblotting was performed for α-synuclein and quantified aggregation by video densitometry.
For orientation: Immunoblotting shows a protein as a band on a membrane.

Another experiment has as its target T2, α-synuclein (Homo sapiens, UniProt P37840).
T2 construct: His-6 (cleaved yes); made in house; host or cells: bacteria (IPTG-induced; Pro-Ex His 6 vector)
Briefly: Tyrosine fluorescence assay of metal binding to α-synuclein. As to conditions: magnesium co-incubated with iron. As for the experimental part: Because iron binds to other proteins that form aggregates and iron is known to accumulate in Parkinson's disease, iron might bind directly to α-synuclein. To confirm this hypothesis, the interaction of iron with α-synuclein was tested using tyrosine fluorescence as an indicator of iron binding. […] Fluorescence of tyrosine has been used to monitor binding of metals to β-amyloid [Garzon-Rodriguez W. et al., Bioorg. Med. Chem. Let., 9:2243-2248 (1999), which is hereby incorporated by reference]. A similar approach was taken to analyze binding of iron to α-synuclein. Tyrosine has a fluorescence emission spectrum that has a peak emission of 310 nm when excited at 280 nm, respectively (FIG. 2A). It was observed that binding of iron reduced the fluorescence of the tyrosines in α-synuclein. […] The Hill coefficient was 1.0 (R^2=1.0, P<0.0001), indicating one binding site for iron with no cooperativity (FIGS. 2A & B). α-Synuclein was also tested for binding to other metals, including CuCl2, ZnCl2 and MgCl2. Because the C-terminus of α-synuclein has a region with 7 glutamates and 4 aspartates, which together could chelate iron, we created a deletion construct lacking the last 27 amino acids on α-synuclein and analyzed binding of this construct.
To monitor the binding profiles of Fe(II) and Mg(II) to α-synuclein in vitro we used changes of tyrosine fluorescence. Tyrosine fluorescence is used as an indicator of changes in protein conformation or binding of metals. Excitation of tyrosine at 280 nm elicits fluorescence that peaks at 310 nm for monomeric tyrosine, and at 350-400 nm for tyrosinate or dimeric tyrosine. The fluorescence spectrum of α-synuclein yielded fluorescence peaks at 310 and 400 nm. The peak at 400 nm cannot be explained by the presence of dimeric tyrosine, due to dimerization of α-synuclein, because dimerization of α-synuclein decreases the fluorescence at 400 nm, and tends to eliminate the peak at 400 nm.

Experiment [4] concerns the target T3, A53T α-synuclein (Homo sapiens, UniProt P37840, A53T).
T3 construct: His-6 (cleaved yes); made in house; host or cells: bacteria (IPTG-induced; Pro-Ex His 6 vector)
Briefly: Tyrosine fluorescence assay of metal binding to A53T α-synuclein. From the text: We also examined how the A53T mutation in human α-synuclein affected binding of iron and magnesium. […] Previous studies have shown that A53T mutation changes the conformation of α-synuclein by increasing its helical content (Polymeropoulos et al., Science, 276:2045-7(1997)). These conformational changes might also reduce binding of magnesium to α-synuclein.

For experiment [5], the system named is BE-M17 neuroblastoma cells. Kind of experiment: Neuroprotection against FeCl2 plus dopamine, MTT assay. As to conditions: 0.8 mM MgCl2, 2 days. Background: Tetrazolium assays rely on reduction of a dye to a coloured formazan, in cell work by metabolically active cells.
Method: MTT and LDH toxicity assay: Cells were plated in 96 well dishes at 5000 cells/well in 100 μl growth medium. For the MTT assay, viability following 48 hrs of pharmacological treatment was analyzed by adding 0.5 mg/ml MTT (MTT, 3-[4,5-dimethylthiazol-2-yl]-2,5-diphenyltetrazolium bromide) and incubating at 37° C. for 3 hrs. Lysis buffer (100 μl of 20% SDS in 50% N, N-dimethylformamide) was then added and the plates are read at 540 nm after 24 hrs. For the lactate dehydrogenase (LDH) assay, viability following 24 hrs of pharmacological treatment was analyzed using MTS reagent and the Cytox 96 kit (Promega) according to manufacturer's directions.
Experiment [6] concerns primary cortical neurons. Kind of experiment: α-Synuclein aggregation in primary cortical neurons (immunoblot, video densitometry). The class given is cell-based, rat. As for the experimental part: Immunoblotting: Cells were harvested with SDS lysis solution (2% SDS, 10 mM Tris, pH 7.4, 2 mM β-glycerol phosphate, 1 μM AEBSF). The amount of protein was determined using the BCA assay (Pierce), […] per lane was run on 14% SDS polyacrylamide gels and transferred to nitrocellulose (200 mAmp, 12 hrs). The nitrocellulose was then incubated 1 hr in 5% milk/PBS, washed, incubated overnight in 1° antibody, washed, then incubated 3 hrs in peroxidase coupled 2° antibody and developed with chemiluminescent reagent (NEN).
(§1) To test this, the inventors examined the ability of magnesium to inhibit α-synuclein aggregation in primary cortical neurons grown in cell culture. Primary cortical neurons were treated with 1 mM FeCl2 plus 0-1.5 mM MgCl2 for 3 days, the α-synuclein was immunublotted and the amount of aggregate determined by video densitometry. […] Doses as low as 0.5 mM of magnesium produced statistically significant reduction in formation of α-synuclein positive aggregates.

In experiment [7] the target is T3, A53T α-synuclein. Kind of experiment: Iron-induced aggregation of recombinant A53T α-synuclein (immunoblot, video densitometry). The class given is biochemical. To be noted: 0-3 mM FeCl2, 100 μM MgCl2, 24 hrs. As for the experimental part:
We incubated recombinant A53T α-synuclein with 0-3 mM FeCl2 and 0 or 100 μM MgCl2 for 24 hrs, then immunoblotted the α-synuclein and quantified aggregation by video densitometry.

For experiment [8], the system named is primary cortical neurons. Briefly: Ubiquitin-positive α-synuclein aggregates in primary cortical neurons (immunoprecipitation, anti-ubiquitin immunoblot). The experiment is classed as cell-based, rat. To be noted: 0.3 mM iron and 50 μM dopamine, 3 days. As for the experimental part: The inventors also examined the amount of aggregates present using an antibody to ubiquitin. As set forth previously, the accumulation of high molecular weight ubiquitin adducts correlates with the formation of α-synuclein aggregates. Primary cortical neurons were treated as described above and the aggregates were immunoprecipitated with anti-α-synuclein antibody and immunoblotted with anti-ubiquitin antibody. An increase in ubiquitination of α-synuclein upon treatment with 0.3 mM iron and 50 μM dopamine for 3 days was observed. However, treating the cells with magnesium produced a statistically significant decrease in ubiquitin immunoreactivity with doses as low as 0.5 mM (n=3, P<0.0001). Thus, magnesium inhibits formation of ubiquitin positive α-synuclein aggregates in primary neurons.

Experiment [9] deals with BE-M17 neuroblastoma cells over-expressing wild type α-synuclein. Kind of experiment: α-Synuclein aggregation and inclusions in BE-M17 cells over-expressing wild type α-synuclein. To be noted: 1 mM FeCl2 plus 50 μM dopamine plus 1 mM MgCl2, 3 days. The experiment is classed as cell-based, human. Here is the method: Immunohistochemistry: For light microscopy, cells are fixed with 4% paraformaldehyde, washed, permeabilized by incubation for 30 min with 0.2% Triton-X 100, blocked with 5% dry milk/1 % goat serum/PBS, washed and then incubated overnight in 1° antibody (1:500). Development is with an ABC kit and 3′, 3′-diaminobenzidine as per manufacturer's directions (Vector, Burlingame, Calif.).
as §1
Next, whether magnesium also prevents formation of α-synuclein-positive inclusions in BE-M17 neurons stably over-expressing wildtype α-synuclein was investigated. The neurons were treated with 1 mM FeCl2 plus 50 μM dopamine plus 0 or 1 mM MgCl2 for 3 days, and then examined by immunocytochemistry using anti-α-synuclein and anti-ubiquitin antibodies.

“Also recorded” adds a separate entry of the source.

`[Cl-].[Cl-].[Mg+2]` [magnesium, MgCl2]: in experiment [1], the aggregate formation entry is “unable to inhibit aggregate formation”. For the same molecule, in [2], the “formation of α-synuclein-positive inclusions” value is “did not exhibit any formation of α-synuclein-positive inclusions” and the “loss of neuronal processes over 100 μm” value is listed as 20%. Moreover, the “iron-induced formation of high molecular weight aggregates of α-synuclein” value in experiment [3] (0-3 mM FeCl2, 100 μM (0.1 mM) MgCl2, 24 hrs, 37° C.) is listed as “striking reduction in formation of high molecular weight aggregates; also recorded: inhibits iron-induced aggregation”. The “spontaneous aggregation of α-synuclein” value in experiment [3] (separate experiments, no iron) is “inhibited spontaneous aggregation”. Also, the “magnesium required to inhibit α-synuclein aggregation in vitro” value in experiment [3] (stated as MgSO4 clinical range) fell in the range of 0.5 to 2 mM. Also, the “effect of co-incubation on iron-induced quenching of tyrosine fluorescence” value at α-synuclein was “did not prevent iron-induced quenching”. Moreover, the “effect of A53T mutation on binding to α-synuclein” value on A53T α-synuclein [4] was “abolish the interaction”. Also, the “increase in cell survival versus Fe2+/dopamine alone” value in experiment [5] (control (vector) cell line) was determined as 1.3 fold. Besides, in experiment [5] (wildtype α-synuclein cell line), the “increase in cell survival versus Fe2+/dopamine alone” value is given as 2.4 fold. Besides, in the experiment on primary cortical neurons [6] (1 mM FeCl2, 3 days), the “lowest dose producing statistically significant reduction of α-synuclein positive aggregates” value came to 0.5 mM. The “formation of high molecular weight α-synuclein aggregates” value in the experiment with primary cortical neurons [6] (1 mM FeCl2, magnesium 0.2 to 1.5 mM, 3 days) is “dose-dependent reduction”. In addition, at A53T α-synuclein [7], the “iron-induced aggregation of A53T α-synuclein” value is “unable to inhibit iron-induced aggregation”. Further, in the experiment with primary cortical neurons [8], the “lowest dose producing statistically significant decrease in ubiquitin immunoreactivity” value stood at 0.5 mM. In addition, in experiment [9], the “α-synuclein-positive inclusions (immunocytochemistry)” value was “little accumulation of α-synuclein-positive inclusions”.
